Measurements published in ChEMBL document CHEMBL4699440, “Comprehensive review on the anti-bacterial activity of 1,2,3-triazole hybrids” (Eur J Med Chem, 2019).

Columns and labels:
Staphylococcus aureus [1] = assay: Antibacterial activity against methicillin-resistant Staphylococcus aureus; assay type: functional
Staphylococcus aureus [2] = assay: Antibacterial activity against inducibly-resistant Staphylococcus aureus; assay type: functional
Staphylococcus aureus [3] = assay: Antibacterial activity against constitutively-resistant Staphylococcus aureus; assay type: functional
Escherichia coli [4] = assay: Antibacterial activity against Escherichia coli ATCC 25922 after overnight incubation by CLSI M7-A9 based method; assay type: functional
Staphylococcus aureus [5] = assay: Antibacterial activity against methicillin-resistant Staphylococcus aureus ATCC 33591; assay type: functional
Providencia rettgeri = assay: Antibacterial activity against Providencia rettgeri ATCC 31052; assay type: functional
Klebsiella pneumoniae [6] = assay: Antibacterial activity against Klebsiella pneumoniae ATCC 700603; assay type: functional
Proteus mirabilis = assay: Antibacterial activity against Proteus mirabilis 13-1; assay type: functional
Enterococcus faecium [7] = assay: Antibacterial activity against Enterococcus faecium 13-7; assay type: functional
Escherichia coli [8] = assay: Antibacterial activity against Escherichia coli 14-11; assay type: functional
Pseudomonas aeruginosa [9] = assay: Antibacterial activity against Pseudomonas aeruginosa ATCC 27853; assay type: functional
[10] = system: Acinetobacter calcoaceticus; assay: Antibacterial activity against Acinetobacter calcoaceticus ATCC 19606; assay type: functional
Citrobacter freundii = assay: Antibacterial activity against Citrobacter freundii ATCC 43864; assay type: functional
[11] = system: Staphylococcus epidermidis; assay: Antibacterial activity against methicillin-resistant Staphylococcus epidermidis 13-3; assay type: functional
Enterobacter cloacae = assay: Antibacterial activity against Enterobacter cloacae ATCC 43560; assay type: functional
Proteus vulgaris [12] = assay: Antibacterial activity against Proteus vulgaris ATCC 29905; assay type: functional
Enterococcus faecium [13] = assay: Antibacterial activity against Enterococcus faecium ATCC 700221; assay type: functional
Enterococcus faecalis [14] = assay: Antibacterial activity against Enterococcus faecalis ATCC 29212 after overnight incubation by CLSI M7-A9 based method; assay type: functional
Staphylococcus aureus [15] = assay: Antibacterial activity against methicillin-sensitive Staphylococcus aureus ATCC 29213; assay type: functional
Klebsiella pneumoniae [16] = assay: Antibacterial activity against Klebsiella pneumoniae 7; assay type: functional
Enterococcus faecalis [17] = assay: Antibacterial activity against Enterococcus faecalis ATCC 51299; assay type: functional
[18] = system: Stenotrophomonas maltophilia; assay: Antibacterial activity against Stenotrophomonas maltophilia ATCC 13636; assay type: functional
Morganella morganii = assay: Antibacterial activity against Morganella morganii ATCC 25830; assay type: functional
Klebsiella aerogenes = assay: Antibacterial activity against Enterobacter aerogenes ATCC 13048; assay type: functional
Serratia marcescens = assay: Antibacterial activity against Serratia marcescens ATCC 21074; assay type: functional
[19] = system: Staphylococcus epidermidis; assay: Antibacterial activity against methicillin-sensitive Staphylococcus epidermidis ATCC 12228; assay type: functional
Bacillus subtilis [20] = assay: Antibacterial activity against Bacillus subtilis NCIM-2162 incubated for 12 hrs; assay type: functional
Staphylococcus aureus [21] = assay: Antibacterial activity against Staphylococcus aureus NCIM-2602 incubated for 12 hrs; assay type: functional
Escherichia coli [22] = assay: Antibacterial activity against Escherichia coli NCIM-2576 incubated for 8 hrs; assay type: functional
Pseudomonas fluorescens = assay: Antibacterial activity against Pseudomonas fluorescence NCIM-2059 incubated for 8 hrs; assay type: functional
Candida albicans [23] = assay: Antifungal activity against Candida albicans RCMB-05036 assessed as diameter of inhibition zone at 5 mg/ml by diffusion technique; assay type: functional; conditions: read-out: DIZ
[24] = system: Syncephalastrum racemosum; assay: Antifungal activity against Syncephalastrum racemosum RCMB-05922 assessed as diameter of inhibition zone at 5 mg/ml by diffusion technique; assay type: functional; conditions: read-out: DIZ
Aspergillus fumigatus = assay: Antifungal activity against Aspergillus fumigatus RCMB-02568 assessed as diameter of inhibition zone at 5 mg/ml by diffusion technique; assay type: functional; conditions: read-out: DIZ
Geotrichum candidum = assay: Antifungal activity against Geotrichum candidum RCMB-05097 assessed as diameter of inhibition zone at 5 mg/ml by diffusion technique; assay type: functional; conditions: read-out: DIZ
Staphylococcus aureus [25] = assay: Antibacterial activity against Staphylococcus aureus RCMB-010010 assessed as diameter of inhibition zone at 5 mg/ml by diffusion technique; assay type: functional; conditions: read-out: DIZ
Escherichia coli [26] = assay: Antibacterial activity against Escherichia coli RCMB-010052 assessed as diameter of inhibition zone at 5 mg/ml by diffusion technique; assay type: functional; conditions: read-out: DIZ
Pseudomonas aeruginosa [27] = assay: Antibacterial activity against Pseudomonas aeruginosa RCMB-010043 assessed as diameter of inhibition zone at 5 mg/ml by diffusion technique; assay type: functional; conditions: read-out: DIZ
Bacillus cereus = assay: Antibacterial activity against Bacillus cereus RCMB-010067 assessed as diameter of inhibition zone at 5 mg/ml by diffusion technique; assay type: functional; conditions: read-out: DIZ
HepG2 = assay: Anticancer activity against human HepG2 cells by MTT assay; assay type: functional, cell-based
Proteus vulgaris [28] = assay: Antibacterial activity against Proteus vulgaris ATCC 4636 assessed as inhibition zone; assay type: functional
Escherichia coli [29] = assay: Antibacterial activity against Escherichia coli ATCC 25922 assessed as inhibition zone; assay type: functional
Pseudomonas aeruginosa [30] = assay: Antibacterial activity against Pseudomonas aeruginosa ATCC 27853 assessed as inhibition zone; assay type: functional
Bacillus spizizenii = assay: Antibacterial activity against Bacillus subtilis ATCC 6633 assessed as inhibition zone; assay type: functional
Staphylococcus aureus [31] = assay: Antibacterial activity against Staphylococcus aureus ATCC 25923 assessed as inhibition zone; assay type: functional
Pseudomonas aeruginosa [32] = assay: Antibacterial activity against Pseudomonas aeruginosa MTCC 741 incubated for 24 hrs by microdilution method; assay type: functional
Klebsiella pneumoniae [33] = assay: Antibacterial activity against Klebsiella pneumoniae MTCC 618 incubated for 24 hrs by microdilution method; assay type: functional
Escherichia coli [34] = assay: Antibacterial activity against Escherichia coli MTCC 443 incubated for 24 hrs by microdilution method; assay type: functional
[35] = system: Staphylococcus epidermidis; assay: Antibacterial activity against Staphylococcus epidermidis incubated for 24 hrs by microdilution method; assay type: functional
Bacillus subtilis [36] = assay: Antibacterial activity against Bacillus subtilis MTCC 441 incubated for 24 hrs by microdilution method; assay type: functional
Staphylococcus aureus [37] = assay: Antibacterial activity against Staphylococcus aureus MTCC 96 incubated for 24 hrs by microdilution method; assay type: functional
Aspergillus brasiliensis = assay: Antifungal activity against Aspergillus brasiliensis MTCC 1344 incubated for 7 days by microdilution method; assay type: functional; conditions: MTCC 1344, 168 h, time 7 day
Pseudomonas aeruginosa [38] = assay: Antibacterial activity against Pseudomonas aeruginosa MTCC 424 incubated for 24 hrs by two-fold serial dilution method; assay type: functional
Staphylococcus aureus [39] = assay: Antibacterial activity against Staphylococcus aureus MTCC 7443 incubated for 24 hrs by two-fold serial dilution method; assay type: functional
Bacillus subtilis [40] = assay: Antibacterial activity against Bacillus subtilis MTCC 441 incubated for 24 hrs by two-fold serial dilution method; assay type: functional
Candida albicans [41] = assay: Antifungal activity against Candida albicans MTCC 227 incubated for 2 days by microdilution method; assay type: functional; conditions: MTCC 227, 48 h, time 2 day

CO[C@@H]1[C@@H](O[C@@H]2O[C@H](C)[C@@H](O[C@H]3C[C@@](C)(O)[C@@H](OC(=O)CCCc4cn(C56CC7CC(CC(C7)C5)C6)nn4)[C@H](C)O3)[C@H](N(C)C)[C@H]2O)[C@H]2CC(O[Si](C)(C)C(C)(C)C)O[C@@H]1CC(=O)O[C@H](C)CC/C=C/C=C/[C@H](O[C@H]1CC[C@H](N(C)C)[C@@H](C)O1)[C@H](C)C2 (some centres not stated)
8 µg/mL: MIC (Staphylococcus aureus [1]) | MIC (Staphylococcus aureus [2]) | MIC (Staphylococcus aureus [3])

CO[C@@H]1[C@@H](O[C@@H]2O[C@H](C)[C@@H](O[C@H]3C[C@@](C)(O)[C@@H](OC(=O)CCCc4cn(CSc5ccccc5)nn4)[C@H](C)O3)[C@H](N(C)C)[C@H]2O)[C@H]2CC(O[Si](C)(C)C(C)(C)C)O[C@@H]1CC(=O)O[C@H](C)CC/C=C/C=C/[C@H](O[C@H]1CC[C@H](N(C)C)[C@@H](C)O1)[C@H](C)C2 (some centres not stated)
8 µg/mL: MIC (Staphylococcus aureus [1]) | MIC (Staphylococcus aureus [2]) | MIC (Staphylococcus aureus [3])

COc1c(N2CCN(CCn3ccnn3)CC2)c(F)cc2c(=O)c(C(=O)O)cn(C3CC3)c12
≥ 0.5 µg/mL: MIC (Escherichia coli [4]) | MIC (Staphylococcus aureus [5]) | MIC (Providencia rettgeri) | MIC (Klebsiella pneumoniae [6]) | MIC (Proteus mirabilis) | MIC (Enterococcus faecium [7]) | MIC (Escherichia coli [8]) | MIC (Pseudomonas aeruginosa [9]) | MIC [10] | MIC (Citrobacter freundii) | MIC [11] | MIC (Enterobacter cloacae) | MIC (Proteus vulgaris [12]) | MIC (Enterococcus faecium [13]) | MIC (Enterococcus faecalis [14]) | MIC (Staphylococcus aureus [15]) | MIC (Klebsiella pneumoniae [16]) | MIC (Enterococcus faecalis [17]) | MIC [18] | MIC (Morganella morganii) | MIC (Klebsiella aerogenes) | MIC (Serratia marcescens) | MIC [19]

COc1ccc(-c2cnnn2Cc2csc(-c3ccc(Br)cc3)n2)cc1
4.5 µg/mL: MIC90 (Bacillus subtilis [20]) | MIC90 (Staphylococcus aureus [21]) | MIC90 (Escherichia coli [22]) | MIC90 (Pseudomonas fluorescens)

COC(=O)c1ccc(-n2nc(N)c(C(=O)NCCNC(=O)c3nn(-c4ccc(C(=O)OC)cc4)nc3N)n2)cc1
20.4 mm: zone of inhibition at 5000 µg/mL (Candida albicans [23]) | zone of inhibition at 5000 µg/mL [24] | zone of inhibition at 5000 µg/mL (Aspergillus fumigatus) | zone of inhibition at 5000 µg/mL (Geotrichum candidum) | zone of inhibition at 5000 µg/mL (Staphylococcus aureus [25]) | zone of inhibition at 5000 µg/mL (Escherichia coli [26]) | zone of inhibition at 5000 µg/mL (Pseudomonas aeruginosa [27]) | zone of inhibition at 5000 µg/mL (Bacillus cereus)
11.6 µg/mL: IC50 (HepG2)

CC(O)C(=O)O.CCOc1ccc2nc3cc(N)ccc3c(N)c2c1
12 mm: inhibition zone (IZ) (Proteus vulgaris [28]) | inhibition zone (IZ) (Escherichia coli [29]) | inhibition zone (IZ) (Pseudomonas aeruginosa [30]) | inhibition zone (IZ) (Bacillus spizizenii) | inhibition zone (IZ) (Staphylococcus aureus [31])

Fc1ccc(-c2cnnn2Cc2csc(-c3ccc(Cl)cc3)n2)cc1
4.5 µg/mL: MIC90 (Bacillus subtilis [20]) | MIC90 (Staphylococcus aureus [21]) | MIC90 (Escherichia coli [22]) | MIC90 (Pseudomonas fluorescens)

COc1ccc(-n2cc(Cn3cc(C(=O)N4CCCCC4)c(=O)c4cc(F)c(N5CCCCC5)cc43)nn2)cc1
18.8 µg/mL: MIC (Pseudomonas aeruginosa [32]) | MIC (Klebsiella pneumoniae [33]) | MIC (Escherichia coli [34]) | MIC [35] | MIC (Bacillus subtilis [36]) | MIC (Staphylococcus aureus [37])

O=C(Cn1cc(COc2ccc(OCc3cn(CC(=O)Nc4ccccc4)nn3)cc2)nn1)Nc1ccccc1
0.0928 µM: MIC (Aspergillus brasiliensis) | MIC (Pseudomonas aeruginosa [38]) | MIC (Staphylococcus aureus [39]) | MIC (Bacillus subtilis [40]) | MIC (Candida albicans [41])
